According to US5278285A, “Variant of Kunitz-type inhibitor derived from the α3-chain of human type VI collagen produced by recombinant DNA technology” (Bayer Aktiengesellschaft, priority 1990, dated 1994):

Legend:
[1] = application during open heart surgery, clinical studies; cited from earlier work
human trypsin = assay: Trypsin inhibition assay; format: biochemical; conditions: substrate benzoyl-L-arginine p-nitroanilide; product expressed in yeast
Method: The trypsin activity was determined using the method of geiger & Fritz, Methods of Enzymatic Analysis, Vol. V, 3rd ed., Bergmeyer (ed.), Verlag Chemie, Weinheim (1984), p. 121 with benzoyl-L-arginine p-nitroanilide as substrate. The liberated p-nitroaniline was measured in a spectrophotometer at 405 nm. Enzyme and inhibitor were preincubated for 15 min before addition of the substrate.

Substance | blood loss [1] | trypsin inhibition (biological activity) (human trypsin)
aprotinin | reduces blood loss significantly | 
α3(VI) inhibitor: Kunitz type proteinase inhibitor, aminoacid pos. 2873 to 2931 of the C5 domain of human type VI collagen α3 chain, expressed in yeast (pKol 100) |  | inhibits human trypsin
